Assay results: BindingDB's records for doi:10.1016/j.bmcl.2016.12.057 (University of Auckland, 2017)

Experiment: Inhibition of recombinant perforin (unknown origin) assessed as decrease in lysis of 51Cr-labelled human Jurkat cells by measuring 51Cr release preincubated for 30 mins followed by cell line addition measured after 4 hrs in presence of 0.1% BSA by gamma counting method

Structure (SMILES) | IC50 [µM]
CN1Cc2cc(-c3nc(-c4cncc(NS(=O)(=O)c5ccc(F)cc5F)c4)cs3)ccc2C1=O | > 20
CC1c2cc(-c3ccc(-c4cncc(NS(=O)(=O)c5ccc(F)cc5F)c4)s3)ccc2C(=O)N1C (stereo not given) | > 20
O=C1NCCc2ccc(-c3ccc(-c4cncc(NS(=O)(=O)c5ccc(F)cc5F)c4)s3)cc21 | > 20
CN1CCc2cc(-c3ccc(-c4cncc(NS(=O)(=O)c5ccc(F)cc5F)c4)s3)ccc2C1=O | > 20
O=C1NCCc2cc(-c3ccc(-c4cncc(NS(=O)(=O)c5ccc(F)cc5F)c4)s3)ccc21 | > 20
